Test systems include SF-268 CNS; K-562 leukemia; SF-539 CNS; TK-10 renal; HL-60(TB) leukemia; LOX IMVI melanoma; HOP-92 NSCLC; UACC-257 melanoma; OVCAR-3 ovarian.
Common to all, as to experiment: NCI anticancer screen, dose series, 48 h

Values joined by “and” are separate entries in the source; they are usually repeats but may differ in a detail not shown here. Identical values can stand only once.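 Exposure lasted 48 hours, with cells grown in 96-well plates and compounds tested at five concentrations. At the GI50, growth is halved. TGI is the concentration that stops growth completely.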

`CC(C)NCCCNC1=C(Cl)C(=O)c2ccccc2C1=O`: the GI50 with SF-268 CNS was 4.42 µM; in the test on K-562 leukemia it was 2.05 µM; in the test on SF-539 CNS it was 16.5 µM; in the test on TK-10 renal, 22.7 µM; with HL-60(TB) leukemia, 2.2 µM; with LOX IMVI melanoma, 1.87 µM. For the same compound, the GI50 with HOP-92 NSCLC is 14.6 µM; with UACC-257 melanoma it was 1.91 µM; in the test on OVCAR-3 ovarian it was 1.83 µM. The TGI in the test on SF-268 CNS was 15.1 µM; in the test with K-562 leukemia it was 4.92 µM; in the test with SF-539 CNS, 31.8 µM; with TK-10 renal, 38.8 µM; in the test with HL-60(TB) leukemia, 5.03 µM; in the test on LOX IMVI melanoma, 3.96 µM. In addition, the TGI turned out to be 31.2 µM in the test with HOP-92 NSCLC, 3.63 µM in the test with UACC-257 melanoma and 3.58 µM in the test with OVCAR-3 ovarian.

With `O=C(O)C1(C(=O)O)CCN(S(=O)(=O)c2ccccc2)CC1`, the TGI in the test on SF-268 CNS, with K-562 leukemia, in the test on SF-539 CNS, with TK-10 renal, in the test with HL-60(TB) leukemia and with LOX IMVI melanoma was greater than 100 µM in each case. The TGI in the test on HOP-92 NSCLC, in the test with UACC-257 melanoma and in the test with OVCAR-3 ovarian was greater than 100 µM in each case.

Regarding `CCCCCCCCCCCCCCCC[N+](C)(C)C`, the GI50 with SF-268 CNS is 0.177 µM and 1.21 µM; with K-562 leukemia, 0.163 µM and 1.17 µM; with SF-539 CNS it was 1.49 µM; in the test on TK-10 renal, 1.11 µM; in the test with HL-60(TB) leukemia it was 0.148 µM and 0.371 µM; in the test on HOP-92 NSCLC it was 0.0918 µM. Besides, the GI50 with UACC-257 melanoma is 0.266 µM and 2.46 µM; with OVCAR-3 ovarian it was 0.182 µM and 1.16 µM. Further, the TGI in the test on SF-268 CNS is 0.483 µM and 3.12 µM; in the test on K-562 leukemia it was 1.1 µM and 2.83 µM; in the test on SF-539 CNS, 3.18 µM; in the test on TK-10 renal, 2.81 µM; in the test on HL-60(TB) leukemia, 0.336 µM and 1.81 µM; in the test with LOX IMVI melanoma, 0.332 µM and 3.07 µM. The TGI in the test with HOP-92 NSCLC is 0.353 µM; in the test with UACC-257 melanoma, 0.942 µM and 6.33 µM; in the test with OVCAR-3 ovarian, 0.519 µM and 2.81 µM.

Consider `Cc1ccc2nc(NC(=O)CSC(=S)N3CCN(Cc4ccccc4)CC3)sc2c1`, for which the GI50 is greater than 100 µM in the test on SF-268 CNS; greater than 100 µM in the test with K-562 leukemia; greater than 100 µM with SF-539 CNS; greater than 100 µM in the test with TK-10 renal; greater than 83.6 µM in the test with HL-60(TB) leukemia; 4.05 µM with HOP-92 NSCLC. Moreover, the GI50 with UACC-257 melanoma and in the test on OVCAR-3 ovarian was greater than 100 µM in each case. In addition, the TGI in the test with SF-268 CNS is greater than 100 µM; with K-562 leukemia, greater than 100 µM; in the test on SF-539 CNS, greater than 100 µM; with TK-10 renal, greater than 100 µM; in the test on HL-60(TB) leukemia, greater than 100 µM; in the test on LOX IMVI melanoma it was greater than 21 µM. Besides, the TGI in the test with HOP-92 NSCLC, with UACC-257 melanoma and in the test with OVCAR-3 ovarian was greater than 100 µM throughout.

Turning to `CCCCCn1ncc(-c2c(O)c(O)cc3c(O)c(-c4c(C)cc5c(-c6cnn(CCCCC)n6)c(O)c(O)cc5c4O)c(C)cc23)n1`, the GI50 in the test with SF-268 CNS is 0.147 µM; in the test on K-562 leukemia it was 0.0837 µM; with SF-539 CNS, 0.135 µM; in the test with TK-10 renal, 0.126 µM; in the test on HL-60(TB) leukemia, 0.124 µM; with LOX IMVI melanoma it was 0.0908 µM. Also, the GI50 was 0.0723 µM in the test with HOP-92 NSCLC, 0.792 µM in the test with UACC-257 melanoma and 0.0919 µM with OVCAR-3 ovarian. For the same compound, the TGI in the test with SF-268 CNS came out at 4.27 µM; in the test on K-562 leukemia it was 8.44 µM; with SF-539 CNS, 4.06 µM; in the test on TK-10 renal, 5.05 µM; in the test with HL-60(TB) leukemia, 3.57 µM; with LOX IMVI melanoma, 1.16 µM. Besides, the TGI with HOP-92 NSCLC was 0.242 µM; in the test on UACC-257 melanoma, 6.12 µM; with OVCAR-3 ovarian it was 4.62 µM.

`CCN(CCc1ccc(F)cc1)c1ccc(CO)c(Cl)c1`: the GI50 in the test with SF-268 CNS was 14.3 µM; in the test on K-562 leukemia, 4.21 µM; with SF-539 CNS, 15.7 µM; with TK-10 renal it was 0.366 µM; in the test on HL-60(TB) leukemia it was 9.01 µM; in the test on LOX IMVI melanoma it was 12.1 µM. Also, the GI50 in the test on HOP-92 NSCLC was 1.94 µM; in the test on UACC-257 melanoma, 1.42 µM; in the test on OVCAR-3 ovarian, 4.27 µM. For the same compound, the TGI turned out to be 28.6 µM with SF-268 CNS; 25.7 µM in the test on K-562 leukemia; 29.3 µM with SF-539 CNS; 1.7 µM in the test with TK-10 renal; 30.3 µM in the test on HL-60(TB) leukemia; 25.6 µM in the test on LOX IMVI melanoma. Moreover, the TGI with HOP-92 NSCLC came out at 13.5 µM; in the test on UACC-257 melanoma, 4.87 µM; with OVCAR-3 ovarian, 15.4 µM.

As to `Cc1cc(Cl)ccc1OCC(=O)Oc1c(Cl)c(Cl)c(Cl)c(Cl)c1Cl`, the TGI in the test on SF-268 CNS was greater than 100 µM; in the test on K-562 leukemia it was greater than 100 µM; in the test on SF-539 CNS it was greater than 100 µM; in the test on TK-10 renal it was 69.1 µM; in the test with HL-60(TB) leukemia it was greater than 100 µM; in the test on LOX IMVI melanoma it was 51.6 µM. Besides, the values for the TGI in the test on HOP-92 NSCLC, in the test with UACC-257 melanoma and with OVCAR-3 ovarian were 40 µM, 45.3 µM and 39 µM, respectively.

The values above are taken from PubChem BioAssay (NCI).
